The supplement of paper PMC8443649
± gives the standard deviation of the averaged measurements.

Test system: PATU8988T-SmBKRAS-LgBCRAF
Assay: KRAS:CRAF interaction luminescence (EndoBind) relative to DMSO control (fold of DMSO); higher = more KRAS-CRAF complex
Protocol: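 EndoBind assay: PATU8988T cells with CRISPR knock-in SmB-KRAS(G12V) and LgB-CRAF, seeded with RealTime-Glo pro-substrate (1:2000) in 384-well plates. Cells were treated with RAF inhibitors (GDC0879, LY3009120, NVP-LHS533) or the MEK inhibitor Selumetinib, and the same plate was read for split-NanoLuc luminescence at several time points. Signal is normalised to the DMSO-treated wells at each time point; n=3 wells.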

CNc1ncc2cc(-c3cc(NC(=O)NCCC(C)(C)C)c(F)cc3C)c(C)nc2n1
KRAS:CRAF interaction luminescence
Settings	time after treatment 0 h	time after treatment 1 h	time after treatment 4 h	time after treatment 6 h	time after treatment 9 h	time after treatment 12 h
0.00375 µM	0.987 ± 0.034	0.979 ± 0.063	1.01 ± 0.04	1.05 ± 0.021	1.09 ± 0.011	1.15 ± 0.03
0.0075 µM	0.976 ± 0.044	0.98 ± 0.073	1.04 ± 0.044	1.1 ± 0.045	1.15 ± 0.035	1.24 ± 0.066
0.015 µM	0.996 ± 0.025	0.98 ± 0.041	1.07 ± 0.038	1.16 ± 0.035	1.22 ± 0.035	1.32 ± 0.034
0.03 µM	0.983 ± 0.043	0.968 ± 0.031	1.14 ± 0.029	1.24 ± 0.022	1.35 ± 0.016	1.45 ± 0.04
0.06 µM	1 ± 0.017	0.994 ± 0.032	1.21 ± 0.06	1.34 ± 0.029	1.46 ± 0.031	1.58 ± 0.051
0.12 µM	1 ± 0.013	0.996 ± 0.027	1.26 ± 0.019	1.42 ± 0.02	1.58 ± 0.049	1.7 ± 0.058
0.24 µM	0.955 ± 0.037	0.991 ± 0.049	1.35 ± 0.049	1.57 ± 0.039	1.76 ± 0.044	1.96 ± 0.073
0.46875 µM	0.987 ± 0.03	1.03 ± 0.045	1.42 ± 0.05	1.67 ± 0.077	1.84 ± 0.079	2.05 ± 0.074
0.9375 µM	0.982 ± 0.039	1.06 ± 0.033	1.51 ± 0.031	1.75 ± 0.075	1.91 ± 0.06	2.07 ± 0.097
1.875 µM	1 ± 0.039	1.09 ± 0.053	1.54 ± 0.043	1.8 ± 0.05	1.91 ± 0.049	2.07 ± 0.087
3.75 µM	0.971 ± 0.057	1.08 ± 0.068	1.59 ± 0.058	1.77 ± 0.048	1.89 ± 0.093	2.04 ± 0.11
7.5 µM	1.03 ± 0.021	1.16 ± 0.088	1.57 ± 0.016	1.74 ± 0.052	1.8 ± 0.053	1.92 ± 0.043
15 µM	1.03 ± 0.032	1.14 ± 0.094	1.47 ± 0.031	1.59 ± 0.037	1.62 ± 0.045	1.78 ± 0.071
30 µM	–	–	1.13 ± 0.019	–	–	–

Cn1cnc2c(F)c(Nc3ccc(Br)cc3Cl)c(C(=O)NOCCO)cc21 [Selumetinib]
KRAS:CRAF interaction luminescence
Settings	time after treatment 0 h	time after treatment 1 h	time after treatment 4 h	time after treatment 6 h	time after treatment 9 h	time after treatment 12 h
0.00375 µM	0.968 ± 0.07	0.983 ± 0.066	0.958 ± 0.032	0.954 ± 0.037	0.937 ± 0.023	0.963 ± 0.028
0.0075 µM	0.975 ± 0.058	0.977 ± 0.067	0.949 ± 0.036	0.931 ± 0.021	0.943 ± 0.042	0.974 ± 0.051
0.015 µM	1.01 ± 0.029	0.979 ± 0.075	0.958 ± 0.031	0.953 ± 0.018	0.939 ± 0.043	0.934 ± 0.037
0.03 µM	0.961 ± 0.069	0.971 ± 0.072	0.973 ± 0.017	0.97 ± 0.028	0.956 ± 0.036	0.965 ± 0.03
0.06 µM	0.995 ± 0.049	0.976 ± 0.069	0.976 ± 0.018	0.935 ± 0.025	0.945 ± 0.03	0.984 ± 0.013
0.12 µM	0.994 ± 0.057	0.979 ± 0.064	0.974 ± 0.013	0.975 ± 0.025	0.948 ± 0.04	0.973 ± 0.031
0.24 µM	0.994 ± 0.029	0.993 ± 0.07	0.988 ± 0.018	0.975 ± 0.023	0.96 ± 0.037	0.963 ± 0.04
0.46875 µM	1 ± 0.043	0.995 ± 0.069	1 ± 0.02	0.985 ± 0.031	0.982 ± 0.017	0.992 ± 0.028
0.9375 µM	1.01 ± 0.045	1.04 ± 0.071	1.02 ± 0.025	1.03 ± 0.035	0.994 ± 0.027	1.01 ± 0.043
1.875 µM	0.978 ± 0.05	1.07 ± 0.084	1.06 ± 0.029	1.06 ± 0.043	1.04 ± 0.048	1.06 ± 0.068
3.75 µM	0.99 ± 0.061	1.14 ± 0.099	1.12 ± 0.013	1.1 ± 0.031	1.1 ± 0.03	1.11 ± 0.063
7.5 µM	1.01 ± 0.11	1.02 ± 0.12	1 ± 0.032	0.995 ± 0.034	0.981 ± 0.033	0.998 ± 0.035
15 µM	1.02 ± 0.059	1.02 ± 0.1	1 ± 0.02	0.983 ± 0.032	0.974 ± 0.024	0.987 ± 0.043
30 µM	–	–	0.953 ± 0.019	–	–	–

OCCn1cc(-c2ccc3c(c2)CC/C3=N\O)c(-c2ccncc2)n1 [GDC0879]
KRAS:CRAF interaction luminescence
Settings	time after treatment 0 h	time after treatment 1 h	time after treatment 4 h	time after treatment 6 h	time after treatment 9 h	time after treatment 12 h
0.00375 µM	0.967 ± 0.056	0.989 ± 0.093	0.964 ± 0.033	0.967 ± 0.014	0.958 ± 0.027	0.9832 ± 0.0088
0.0075 µM	1.03 ± 0.04	1.03 ± 0.083	0.976 ± 0.026	0.964 ± 0.021	0.958 ± 0.042	0.982 ± 0.023
0.015 µM	0.987 ± 0.079	1.03 ± 0.11	0.985 ± 0.04	0.966 ± 0.028	0.953 ± 0.042	0.969 ± 0.037
0.03 µM	0.989 ± 0.054	1.1 ± 0.11	1.03 ± 0.027	1.03 ± 0.027	1.01 ± 0.029	1.01 ± 0.015
0.06 µM	0.977 ± 0.056	1.22 ± 0.073	1.1 ± 0.034	1.09 ± 0.03	1.07 ± 0.03	1.08 ± 0.03
0.12 µM	0.964 ± 0.076	1.27 ± 0.075	1.19 ± 0.055	1.18 ± 0.045	1.14 ± 0.026	1.16 ± 0.024
0.24 µM	0.983 ± 0.051	1.4 ± 0.056	1.4 ± 0.043	1.38 ± 0.024	1.36 ± 0.056	1.36 ± 0.093
0.46875 µM	1.01 ± 0.032	1.5 ± 0.11	1.62 ± 0.046	1.61 ± 0.048	1.58 ± 0.06	1.59 ± 0.07
0.9375 µM	1.01 ± 0.051	1.53 ± 0.076	1.75 ± 0.059	1.81 ± 0.052	1.74 ± 0.063	1.78 ± 0.1
1.875 µM	1.03 ± 0.028	1.56 ± 0.065	1.83 ± 0.083	1.92 ± 0.071	1.87 ± 0.11	1.86 ± 0.18
3.75 µM	1.03 ± 0.031	1.54 ± 0.12	1.85 ± 0.048	1.93 ± 0.031	1.9 ± 0.046	1.99 ± 0.083
7.5 µM	1.05 ± 0.046	1.54 ± 0.074	1.87 ± 0.04	1.98 ± 0.037	1.95 ± 0.059	2.05 ± 0.076
15 µM	1.02 ± 0.082	1.46 ± 0.14	1.8 ± 0.029	1.99 ± 0.051	2.03 ± 0.11	2.15 ± 0.2
30 µM	–	–	1.66 ± 0.063	–	–	–
